The values below come from patent US6831080B2, “Cinnamide derivatives as KCNQ potassium channel modulators” (Bristol-Myers Squibb Company, priority 2001, dated 2004).

Regarding `CC(NC(=O)/C=C/c1ccccc1)c1ccc2c(c1)CCCN2C` (stereo not shown) [Example 256, N-[1-(1-methyl-1,2,3,4-tetrahydro-quinolin-6-yl)-ethyl]-3-phenyl-acrylamide], the melting point (usually the temperature of the solid-liquid transition) fell in the range of 65 to 68 °C.
The result for `CC(NC(=O)/C=C/c1ccccc1)c1ccc2c(c1)CCCN2` (stereo not shown) [Example 249, 3-phenyl-N-[1-(1,2,3,4-tetrahydro-quinolin-6-yl)ethyl]acrylamide] reads 64 to 67 °C; that for `CC(NC(=O)/C=C/c1ccccc1F)c1ccc2c(c1)N(C)CCC2` (racemic) [Example 236, (±)-3-(2-fluoro-phenyl)-N-[1-(1-methyl-1,2,3,4-tetrahydro-quinolin-7-yl)ethyl]acrylamide], 60 to 63 °C; that for `CC(NC(=O)/C=C/c1cccc(F)c1)c1ccc2c(c1)CCCN2` (stereo not shown) [Example 254, 3-(3-fluoro-phenyl)-N-[1-(1,2,3,4-tetrahydro-quinolin-6-yl)ethyl]acrylamide], 172 to 174 °C.
The result for `CC(NC(=O)/C=C/c1ccccc1F)c1ccc2c(c1)NCCC2` (racemic) reads 171 to 173 °C; that for `CC(NC(=O)/C=C/c1cccc(F)c1)c1ccc2c(c1)N(C)CCC2` (racemic) [Example 239, (±)-3-(3-fluoro-phenyl)-N-[1-(1-methyl-1,2,3,4-tetrahydro-quinolin-7-yl)ethyl]acrylamide], 60 to 63 °C; that for `CC(NC(=O)/C=C/c1ccccc1)c1ccc2c(c1)NCCC2` (racemic) [Example 233, (±)-3-phenyl-N-[1-(1,2,3,4-tetrahydro-quinolin-7-yl)ethyl]-acrylamide], 144 to 146 °C.
Consider `CC(NC(=O)/C=C/c1ccc(F)cc1)c1ccc2c(c1)N(C)CCC2` (racemic) [Example 240, (±)-3-(4-fluoro-phenyl)-N-[1-(1-methyl-1,2,3,4-tetrahydro-quinolin-7-yl)ethyl]acrylamide], for which the melting point was in the range of 183 to 185 °C.
In turn, `CC(NC(=O)/C=C/c1cc(F)ccc1F)c1ccc2c(c1)NCCC2` (racemic) [Example 234, (±)-3-(2,5-difluoro-phenyl)-N-[1-(1,2,3,4-tetrahydro-quinolin-7-yl)ethyl]-acrylamide] had a melting point of 139 to 141 °C.
The result for `CC(NC(=O)/C=C/c1c(F)cccc1F)c1ccc2c(c1)CCCN2` (stereo not shown) [Example 253, 3-(2,6-difluoro-phenyl)-N-[1-(1,2,3,4-tetrahydro-quinolin-6-yl)ethyl]acrylamide] reads 77 to 80 °C; that for `CCN1CCCc2ccc(C(C)NC(=O)/C=C/c3ccccc3)cc21` (racemic) [Example 241, (±)-N-[1-(1-ethyl-1,2,3,4-tetrahydro-quinolin-7-yl)-ethyl]-3-phenyl-acrylamide], 50 to 52 °C; that for `CC(NC(=O)/C=C/c1ccc(F)cc1)c1ccc2c(c1)CCCN2` (stereo not shown) [Example 255, 3-(4-fluoro-phenyl)-N-[1-(1,2,3,4-tetrahydro-quinolin-6-yl)ethyl]acrylamide], 140 to 143 °C.
The result for `CC(NC(=O)/C=C/c1cc(F)ccc1F)c1ccc2c(c1)CCCN2C` (stereo not shown) [Example 257, 3-(2,5-difluoro-phenyl)-N-[1-(1-methyl-1,2,3,4-tetrahydro-quinolin-6-yl)ethyl]acrylamide] reads 51 to 55 °C; that for `CC(NC(=O)/C=C/c1ccccc1)c1ccc2c(c1)N(C)CCC2` (racemic) [Example 238, (±)-N-[1-(1-methyl-1,2,3,4-tetrahydro-quinolin-7-yl)-ethyl]-3-phenyl-acrylamide], 166 °C (dec.).
As for `CC(NC(=O)/C=C/c1cccc(F)c1)c1ccc2c(c1)NCCC2` (racemic) [Example 232, (±)-3-(3-Fluoro-phenyl)-N-[1-(1,2,3,4-tetrahydro-quinolin-7-yl)ethyl]-acrylamide], the figure is 130 to 132 °C (dec.); as for `CC(NC(=O)/C=C/c1ccccc1F)c1ccc2c(c1)CCCN2` (stereo not shown) [Example 251, 3-(2-fluoro-phenyl)-N-[1-(1,2,3,4-tetrahydro-quinolin-6-yl)ethyl]acrylamide], 149 to 151 °C (dec.).
